For seven molecules, IC50 results are on record in ChEMBL document CHEMBL1949562, “Triterpenes possessing an unprecedented skeleton isolated from hydrolyzate of total saponins from Gynostemma pentaphyllum” (Eur J Med Chem, 2012).

The structures appear in SMILES notation.

The nature of assay [1]: Cytotoxicity against human U87 cells after 72 hrs by MTT assay. Particulars: U-87 MG. In kind it is functional, cell-based, U-87MG ATCC.
Assay [2] is described as follows: Cytotoxicity against human Hep3B cells after 72 hrs by MTT assay. In kind it is functional, cell-based, Hep 3B2.
The test system of a further assay is A549. In words: Cytotoxicity against human A549 cells after 72 hrs by MTT assay. Format: functional, cell-based. Particulars: A549, 72 h.

For `CC(C)=CCC[C@](C)(O)[C@H]1CC[C@]2(C)[C@@H]1[C@H](O)C[C@@H]1[C@@]3(C)CC[C@H](O)C(C)(C)[C@@H]3CC[C@]12C`, the IC50 in assay [1] was 36.7 µM; in assay [2], 14.7 µM.
On to `CC(C)=C1CC=C([C@H]2CC[C@]3(C)[C@@H]2CC[C@@H]2C4=C(CC[C@]23C)C(C)(C)[C@@H]2CC[C@H]4O2)C1=O` [GYPENSAPOGENIN A], for which the IC50 in the assay on A549 was 71.2 µM; in assay [1] it was > 100 µM; in assay [2], 44.4 µM.
Regarding `COc1cc([C@@H]2c3cc4c(cc3[C@@H](O[C@@H]3O[C@@H]5CO[C@@H](C)O[C@H]5[C@H](O)[C@H]3O)[C@H]3COC(=O)[C@H]23)OCO4)cc(OC)c1O` [ETOPOSIDE], the IC50 with A549 came out at 23.8 µM; in assay [1] it was 12.4 µM; in assay [2], 6.7 µM.
On to `CC(C)=C1CC([C@H]2CC[C@]3(C)[C@@H]2CC[C@@H]2C4=C(CC[C@]23C)C(C)(C)[C@@H]2CC[C@H]4O2)=CC1=O` [GYPENSAPOGENIN B], for which the IC50 (in the assay on A549; in assay [1]; in assay [2]) was > 100 µM throughout.
For the molecule `CC(C)=C[C@H]1C=C([C@H]2CC[C@]3(C)[C@@H]2CC[C@@H]2[C@@]4(C)CC[C@H](O)C(C)(C)[C@@H]4CC[C@]23C)C(=O)O1` [GYPENSAPOGENIN D], the half-inhibitory concentration (IC50) (in the assay on A549; in assay [1]; in assay [2]) was > 100 µM throughout.
`CC(C)=C1CC=C([C@H]2CC[C@]3(C)[C@@H]2CC[C@@H]2[C@@]4(C)CC[C@H](O)C(C)(C)[C@@H]4CC[C@]23C)C1=O` [GYPENSAPOGENIN C]: the IC50 with A549 was 0.11 µM; in assay [1], 0.58 µM; in assay [2], > 100 µM.
Taken in the same sequence, the figures for `CC(C)=C[C@H]1C=C([C@H]2CC[C@]3(C)[C@@H]2CC[C@@H]2[C@@]4(C)CC[C@H](O[C@@H]5O[C@H](CO)[C@@H](O)[C@H](O)[C@H]5O)C(C)(C)[C@@H]4CC[C@]23C)C(=O)O1` were > 100 µM, > 100 µM and > 100 µM.
